{"source": "ChEMBL document CHEMBL4680314", "about": "“Discovery of potent glycogen synthase kinase 3/cholinesterase inhibitors with neuroprotection as potential therapeutic agent for Alzheimer's disease” (Bioorg Med Chem, 2021)", "key": {"Acetylcholinesterase": {"target": "Acetylcholinesterase (Homo sapiens, UniProt P22303)", "sequence (P22303 whole entry)": "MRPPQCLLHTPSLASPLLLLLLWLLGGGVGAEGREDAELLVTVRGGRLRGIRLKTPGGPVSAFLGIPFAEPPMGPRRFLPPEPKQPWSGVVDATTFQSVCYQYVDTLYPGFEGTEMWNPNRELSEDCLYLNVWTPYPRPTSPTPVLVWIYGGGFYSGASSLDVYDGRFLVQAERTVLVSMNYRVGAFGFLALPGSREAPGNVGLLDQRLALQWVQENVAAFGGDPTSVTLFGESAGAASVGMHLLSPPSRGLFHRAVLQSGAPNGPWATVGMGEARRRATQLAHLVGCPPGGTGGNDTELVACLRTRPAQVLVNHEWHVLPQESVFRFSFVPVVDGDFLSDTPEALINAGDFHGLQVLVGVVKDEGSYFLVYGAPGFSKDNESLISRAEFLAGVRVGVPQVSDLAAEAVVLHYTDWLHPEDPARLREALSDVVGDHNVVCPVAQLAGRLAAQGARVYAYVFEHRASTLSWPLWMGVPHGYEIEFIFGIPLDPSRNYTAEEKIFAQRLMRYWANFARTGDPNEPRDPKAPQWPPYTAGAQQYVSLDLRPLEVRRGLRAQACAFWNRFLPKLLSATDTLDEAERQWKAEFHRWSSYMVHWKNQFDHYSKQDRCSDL", "assay": "Inhibition of human recombinant AChE expressed in HEK293 cells using acetylthiocholine iodide as substrate incubated for 10 mins by Ellman's method", "format": "cell-based"}, "Cholinesterase": {"target": "Cholinesterase (Homo sapiens, UniProt P06276)", "sequence (P06276 whole entry)": "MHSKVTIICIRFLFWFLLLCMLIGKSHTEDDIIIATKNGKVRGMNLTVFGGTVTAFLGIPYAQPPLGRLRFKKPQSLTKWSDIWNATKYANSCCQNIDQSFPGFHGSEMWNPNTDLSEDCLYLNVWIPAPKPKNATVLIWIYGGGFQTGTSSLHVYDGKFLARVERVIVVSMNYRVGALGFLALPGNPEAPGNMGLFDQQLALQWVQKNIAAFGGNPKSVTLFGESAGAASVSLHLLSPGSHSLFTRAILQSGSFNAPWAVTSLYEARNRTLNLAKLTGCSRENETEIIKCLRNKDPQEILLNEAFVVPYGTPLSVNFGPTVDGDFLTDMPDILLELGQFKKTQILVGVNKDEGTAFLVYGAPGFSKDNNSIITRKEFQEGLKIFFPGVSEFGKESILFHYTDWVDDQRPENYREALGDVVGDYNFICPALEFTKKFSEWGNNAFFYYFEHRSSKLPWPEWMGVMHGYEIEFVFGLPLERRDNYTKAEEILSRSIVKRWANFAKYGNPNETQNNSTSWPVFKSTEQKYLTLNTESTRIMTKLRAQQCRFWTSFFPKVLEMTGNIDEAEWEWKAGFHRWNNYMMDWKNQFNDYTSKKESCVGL", "assay": "Inhibition of human BChE using butyrylthiocholineiodide as substrate incubated for 10 mins by Ellman's method"}, "[1]": {"target": "Glycogen synthase kinase-3 beta (Homo sapiens, UniProt P49841)", "sequence (P49841 whole entry)": "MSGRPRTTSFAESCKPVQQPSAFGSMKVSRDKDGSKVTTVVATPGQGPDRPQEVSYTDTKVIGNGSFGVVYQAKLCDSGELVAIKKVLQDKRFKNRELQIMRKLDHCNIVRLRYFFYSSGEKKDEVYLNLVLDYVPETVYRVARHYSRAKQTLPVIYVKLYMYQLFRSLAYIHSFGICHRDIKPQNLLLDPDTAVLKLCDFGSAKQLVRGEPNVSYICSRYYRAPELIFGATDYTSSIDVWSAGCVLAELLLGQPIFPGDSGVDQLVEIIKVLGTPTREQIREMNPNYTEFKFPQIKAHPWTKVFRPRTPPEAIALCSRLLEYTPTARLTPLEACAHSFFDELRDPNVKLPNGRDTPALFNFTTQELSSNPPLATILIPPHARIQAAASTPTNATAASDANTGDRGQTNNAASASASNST", "assay": "biochemical", "description": "Inhibition of recombinant human N-terminal His6-tagged GSK3beta H350L mutant expressed in baculovirus infected Sf21 cells using prephosphorylated polypeptide as substrate incubated for 1 min followed by substrate addition and measured after 30 mins by Kinase-Glo luminescence assay"}, "in vitro": {"assay": "in vitro", "details": "PAMPA", "description": "Effective permeability of compound in PBS/EtOH buffer (7:3) at 25 ug/ml incubated for 18 hrs by PAMPA-BBB assay"}, "[2]": {"assay": "Half life in Sprague-Dawley rat at 10 mg/kg, iv measured upto 24 hrs by LC-MS/MS analysis", "format": "ADME, organism-based", "details": "in vivo"}, "[3]": {"assay": "Tmax in Sprague-Dawley rat at 10 mg/kg, iv measured upto 24 hrs by LC-MS/MS analysis", "format": "ADME, organism-based", "details": "in vivo"}, "[4]": {"assay": "Volume of distribution in Sprague-Dawley rat at 10 mg/kg, iv measured upto 24 hrs by LC-MS/MS analysis", "format": "ADME, organism-based", "details": "in vivo"}, "[5]": {"assay": "MRT (0 to t) in Sprague-Dawley rat at 10 mg/kg, iv measured upto 24 hrs by LC-MS/MS analysis", "format": "ADME, organism-based", "details": "in vivo"}, "[6]": {"assay": "AUC (0 to infinity) in Sprague-Dawley rat at 10 mg/kg, po by LC-MS/MS analysis", "format": "ADME, organism-based", "set-up": "route oral, time infinity, dose 10 mg/kg", "details": "in vivo"}, "[7]": {"assay": "AUC (0 to 24 hrs) in Sprague-Dawley rat at 10 mg/kg, po measured upto 24 hrs by LC-MS/MS analysis", "format": "ADME, organism-based", "set-up": "route oral, dose 10 mg/kg, time <=24", "details": "in vivo"}, "[8]": {"assay": "AUC (0 to infinity) in Sprague-Dawley rat at 10 mg/kg, iv by LC-MS/MS analysis", "format": "ADME, organism-based", "set-up": "time infinity, route intravenous, dose 10 mg/kg", "details": "in vivo"}, "[9]": {"assay": "Volume of distribution in Sprague-Dawley rat at 10 mg/kg, po measured upto 24 hrs by LC-MS/MS analysis", "format": "ADME, organism-based", "details": "in vivo"}, "[10]": {"assay": "Clearance in Sprague-Dawley rat at 10 mg/kg, iv measured upto 24 hrs by LC-MS/MS analysis", "format": "ADME, organism-based", "details": "in vivo"}, "[11]": {"assay": "Clearance in Sprague-Dawley rat at 10 mg/kg, po measured upto 24 hrs by LC-MS/MS analysis", "format": "ADME, organism-based", "details": "in vivo"}, "[12]": {"assay": "Cmax in Sprague-Dawley rat at 10 mg/kg, po measured upto 24 hrs by LC-MS/MS analysis", "format": "ADME, organism-based", "set-up": "route oral, dose 10 mg/kg, time <=24", "details": "in vivo"}, "[13]": {"assay": "Half life in Sprague-Dawley rat at 10 mg/kg, po measured upto 24 hrs by LC-MS/MS analysis", "format": "ADME, organism-based", "details": "in vivo"}, "[14]": {"assay": "Oral bioavailability in Sprague-Dawley rat at 10 mg/kg measured upto 24 hrs by LC-MS/MS analysis", "format": "ADME, organism-based", "details": "in vivo"}, "[15]": {"assay": "AUC (0 to 24 hrs) in Sprague-Dawley rat at 10 mg/kg, iv measured upto 24 hrs by LC-MS/MS analysis", "format": "ADME, organism-based", "set-up": "route intravenous, dose 10 mg/kg, time <=24", "details": "in vivo"}, "[16]": {"assay": "Cmax in Sprague-Dawley rat at 10 mg/kg, iv measured upto 24 hrs by LC-MS/MS analysis", "format": "ADME, organism-based", "set-up": "route intravenous, dose 10 mg/kg, time <=24", "details": "in vivo"}, "[17]": {"assay": "Tmax in Sprague-Dawley rat at 10 mg/kg, po measured upto 24 hrs by LC-MS/MS analysis", "format": "ADME, organism-based", "details": "in vivo"}, "[18]": {"assay": "MRT (0 to t) in Sprague-Dawley rat at 10 mg/kg, po measured upto 24 hrs by LC-MS/MS analysis", "format": "ADME, organism-based", "details": "in vivo"}}}
{"smiles": "CNC(=O)c1sc(-c2ccnc(NC(=O)C3CC3)c2)nc1OCC1CCN(Cc2ccc(Cl)cc2)CC1", "values": [{"measurement": "IC50", "setting": "Acetylcholinesterase", "result": 82, "unit": "µM"}, {"measurement": "IC50", "setting": "Cholinesterase", "result": 297, "unit": "µM"}, {"measurement": "IC50", "setting": "[1]", "result": 0.045, "unit": "µM"}]}
{"smiles": "NC(=O)c1sc(-c2ccnc(NC(=O)C3CC3)c2)nc1OCCC1CCN(Cc2ccccc2Cl)CC1", "values": [{"measurement": "Papp at 18 h, 25 ug/ml", "setting": "in vitro", "result": 6.8, "unit": "×10⁻⁶ cm/s"}, {"measurement": "IC50", "setting": "Acetylcholinesterase", "result": 3.7, "unit": "µM"}, {"measurement": "IC50", "setting": "Cholinesterase", "result": 301, "unit": "µM"}, {"measurement": "IC50", "setting": "[1]", "result": 0.027, "unit": "µM"}]}
{"smiles": "NC(=O)c1sc(-c2ccnc(NC(=O)C3CC3)c2)nc1OCCC1CCN(Cc2ccc(F)cc2)CC1", "values": [{"measurement": "Papp at 18 h, 25 ug/ml", "setting": "in vitro", "result": 8.2, "unit": "×10⁻⁶ cm/s"}, {"measurement": "IC50", "setting": "Acetylcholinesterase", "result": 4.5, "unit": "µM"}, {"measurement": "IC50", "setting": "Cholinesterase", "result": 17.6, "unit": "µM"}, {"measurement": "IC50", "setting": "[1]", "result": 0.038, "unit": "µM"}]}
{"smiles": "NC(=O)c1sc(-c2ccnc(NC(=O)C3CC3)c2)nc1OCCCC1CCN(Cc2cccc(F)c2)CC1", "values": [{"measurement": "Papp at 18 h, 25 ug/ml", "setting": "in vitro", "result": 8.6, "unit": "×10⁻⁶ cm/s"}, {"measurement": "IC50", "setting": "Acetylcholinesterase", "result": 3, "unit": "µM"}, {"measurement": "IC50", "setting": "Cholinesterase", "result": 1.8, "unit": "µM"}, {"measurement": "IC50", "setting": "[1]", "result": 0.009, "unit": "µM"}]}
{"smiles": "CNC(=O)c1sc(-c2ccnc(NC(=O)C3CC3)c2)nc1OCC1CCN(Cc2ccccc2F)CC1", "values": [{"measurement": "IC50", "setting": "Acetylcholinesterase", "result": 9, "unit": "µM"}, {"measurement": "IC50", "setting": "Cholinesterase", "result": 11, "unit": "µM"}, {"measurement": "IC50", "setting": "[1]", "result": 0.014, "unit": "µM"}]}
{"smiles": "CCn1cc(C(=O)O)c(=O)c2cc(F)c(N3CCNC(C)C3)c(F)c21", "note": "(configuration not stated) [LOMEFLOXACIN]", "values": [{"measurement": "Papp at 18 h, 25 ug/ml", "setting": "in vitro", "result": 0.9, "unit": "×10⁻⁶ cm/s"}]}
{"smiles": "NC(=O)c1sc(-c2ccnc(NC(=O)C3CC3)c2)nc1OCCC1CCN(Cc2ccccc2F)CC1", "values": [{"measurement": "IC50", "setting": "Acetylcholinesterase", "result": 7.8, "unit": "µM"}, {"measurement": "IC50", "setting": "Cholinesterase", "result": 41, "unit": "µM"}, {"measurement": "IC50", "setting": "[1]", "result": 0.261, "unit": "µM"}]}
{"smiles": "CNC(=O)c1sc(-c2ccnc(NC(=O)C3CC3)c2)nc1OCC1CCN(Cc2cccc([N+](=O)[O-])c2)CC1", "values": [{"measurement": "IC50", "setting": "Acetylcholinesterase", "result": 6, "unit": "µM"}, {"measurement": "IC50", "setting": "Cholinesterase", "result": 9, "unit": "µM"}, {"measurement": "IC50", "setting": "[1]", "result": 0.005, "unit": "µM"}]}
{"smiles": "NC(=O)c1sc(-c2ccnc(NC(=O)C3CC3)c2)nc1OCC1CCN(Cc2ccccc2)CC1", "values": [{"measurement": "half-life", "setting": "[2]", "result": 6.7, "unit": "h"}, {"measurement": "Tmax", "setting": "[3]", "result": 6, "unit": "min"}, {"measurement": "Vd", "setting": "[4]", "result": 55.2, "unit": "L/kg"}, {"measurement": "Papp at 18 h, 25 ug/ml", "setting": "in vitro", "result": 6.4, "unit": "×10⁻⁶ cm/s"}, {"measurement": "MRT last at 24 h", "setting": "[5]", "result": 9.1, "unit": "h"}, {"measurement": "AUC(0-inf)", "setting": "[6]", "result": 688, "unit": "ng·h/mL"}, {"measurement": "IC50", "setting": "Acetylcholinesterase", "result": 1.5, "unit": "µM"}, {"measurement": "AUC(0-t)", "setting": "[7]", "result": 622, "unit": "ng·h/mL"}, {"measurement": "AUC(0-inf)", "setting": "[8]", "result": 1820, "unit": "ng·h/mL"}, {"measurement": "Vd", "setting": "[9]", "result": 93.6, "unit": "L/kg"}, {"measurement": "clearance", "setting": "[10]", "result": 104, "unit": "mL/min/kg"}, {"measurement": "CL/F", "setting": "[11]", "result": 267, "unit": "mL/min/kg"}, {"measurement": "Cmax", "setting": "[12]", "result": 67.3, "unit": "ng/mL"}, {"measurement": "IC50", "setting": "Cholinesterase", "result": 12.7, "unit": "µM"}, {"measurement": "half-life", "setting": "[13]", "result": 4.5, "unit": "h"}, {"measurement": "bioavailability", "setting": "[14]", "result": 40.7, "unit": "%"}, {"measurement": "AUC(0-t)", "setting": "[15]", "result": 1540, "unit": "ng·h/mL"}, {"measurement": "Cmax", "setting": "[16]", "result": 507, "unit": "ng/mL"}, {"measurement": "Tmax", "setting": "[17]", "result": 4.5, "unit": "h"}, {"measurement": "IC50", "setting": "[1]", "result": 0.094, "unit": "µM"}, {"measurement": "MRT last at 24 h", "setting": "[18]", "result": 8.1, "unit": "h"}]}
{"smiles": "NC(=O)c1sc(-c2ccnc(NC(=O)C3CC3)c2)nc1OCCCC1CCN(Cc2ccccc2F)CC1", "values": [{"measurement": "Papp at 18 h, 25 ug/ml", "setting": "in vitro", "result": 7.1, "unit": "×10⁻⁶ cm/s"}, {"measurement": "IC50", "setting": "Acetylcholinesterase", "result": 1.32, "unit": "µM"}, {"measurement": "IC50", "setting": "Cholinesterase", "result": 4.2, "unit": "µM"}, {"measurement": "IC50", "setting": "[1]", "result": 0.015, "unit": "µM"}]}
{"smiles": "CNC(=O)c1sc(-c2ccnc(NC(=O)C3CC3)c2)nc1OCC1CCN(Cc2ccc(Cl)c(Cl)c2)CC1", "values": [{"measurement": "IC50", "setting": "Acetylcholinesterase", "result": 97, "unit": "µM"}, {"measurement": "IC50", "setting": "Cholinesterase", "result": 65, "unit": "µM"}, {"measurement": "IC50", "setting": "[1]", "result": 0.041, "unit": "µM"}]}
{"smiles": "CNC(=O)c1sc(-c2ccnc(NC(=O)C3CC3)c2)nc1OC1CCN(Cc2ccccc2)CC1", "values": [{"measurement": "IC50", "setting": "Acetylcholinesterase", "result": 73, "unit": "µM"}, {"measurement": "IC50", "setting": "Cholinesterase", "result": 31, "unit": "µM"}, {"measurement": "IC50", "setting": "[1]", "result": 0.007, "unit": "µM"}]}
{"smiles": "COc1cc2c(cc1OC)C(=O)C(CC1CCN(Cc3ccccc3)CC1)C2", "note": "(configuration not stated) [DONEPEZIL]", "values": [{"measurement": "IC50", "setting": "[1]", "result": "> 1", "unit": "µM"}]}
